Measured values published in US7462614B2, “Imidazotriazine compounds” (Smithkline Beecham Corporation, priority 2003, dated 2008).
One block for each compound: values may come before it.

Experiments:
[1] = target: T1, truncated human PLK1 (kinase domain) (Homo sapiens, UniProt P53350); assay: Assay for Inhibition of PLK1 (33P SPA enzyme activity); assay type: biochemical; conditions: 1 μM ATP, 2 nM enzyme; read-out: Ave pIC50 PLK Enzyme Inhibition (converted)
T1 construct: made in house; host or cells: baculovirus-infected T. ni insect cells
T1 sequence (P53350 21-346): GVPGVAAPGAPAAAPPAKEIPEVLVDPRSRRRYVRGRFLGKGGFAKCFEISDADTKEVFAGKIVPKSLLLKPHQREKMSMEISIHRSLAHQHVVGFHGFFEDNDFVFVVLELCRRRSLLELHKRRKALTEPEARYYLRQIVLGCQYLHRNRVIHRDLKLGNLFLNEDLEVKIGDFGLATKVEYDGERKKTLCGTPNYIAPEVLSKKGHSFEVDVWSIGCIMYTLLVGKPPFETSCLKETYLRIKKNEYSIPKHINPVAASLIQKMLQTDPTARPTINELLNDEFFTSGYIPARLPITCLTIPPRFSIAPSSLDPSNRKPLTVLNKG
Protocol: I. Assay for Inhibition of PLK1
A. Preparation of 6× N-Terminal His-Tagged PLK Kinase Domain
All procedures are performed at 4° C. Cells are lysed in 25 mM HEPES, 200 mM NaCl, 25 mM imidazole; pH 8.0. The homogenate is centrifuged at 14K rpm in a SLA-1500 rotor for 40 min and the supernatant filtered through a 1.2 micron filter. The supernatant is loaded onto a Nickel chelating Sepharose (Amersham Pharmacia) column and washed with 25 mM HEPES, 500 mM NaCl, 25 mM imidazole; pH 8.0. […] PLK is concentrated using a 10 kDa molecular weight cutoff membrane and then loaded onto a Superdex 75 gel filtration (Amersham BioSciences) column equilibrated in 25 mM HEPES, 1 mM DTT, 500 mM NaCl; pH 8.0. Fractions containing PLK are determined by SDS-PAGE. PLK is pooled, aliquoted and stored at […]. Samples are quality controlled using mass spectrometry.
B. Enzyme Activity±Inhibitors is Determined As Follows:
Compounds are added to the plate (1 μL in 100% DMSO).
Immediately upon addition of enzyme and thorough mixing, add 20 uL per well into 384-well white plates containing compounds and controls. […] The enzymatic reaction is stopped with 50 μl of bead mix (50 mM EDTA, 2 mg/ml Streptavidin-coated SPA beads in Standard Dulbecco's PBS (without Mg^2+and Ca^2+), and 60 μM ATP).

[2] = system: lung (H460) tumor cell line; assay: Methylene Blue Growth Inhibition Assay, H460; assay type: cell-based; conditions: Homo sapiens, NCI-H460, 72 h; H460, 3 days; read-out: MeB Cell Line IC50
Source text: (§1) II. Methylene Blue Growth Inhibition Assay
(§2) Medium was removed by aspiration.

[3] = system: colon (HCT116) tumor cell line; assay: Methylene Blue Growth Inhibition Assay, HCT116; assay type: cell-based; conditions: Homo sapiens, HCT-116, 72 h; HCT116, 3 days; read-out: MeB Cell Line IC50
Source text: as §1, §2

[4] = system: Normal Human foreskin fibroblasts (HFF); assay: Methylene Blue Growth Inhibition Assay, HFF; assay type: cell-based; conditions: 72 h, 3 days, read-out: MeB Cell Line IC50
Source text: as §1, §2

[5] = system: breast tumor (MCF7) cell line; assay: Methylene Blue Growth Inhibition Assay, MCF7; assay type: cell-based; conditions: Homo sapiens, 72 h; MCF7, 3 days; read-out: MeB Cell Line IC50
Source text: as §1, §2

[6] = system: prostate (PC3) tumor cell line; assay: Methylene Blue Growth Inhibition Assay, PC3; assay type: cell-based; conditions: Homo sapiens, 72 h; PC3, 3 days; read-out: MeB Cell Line IC50
Source text: as §1, §2

[7] = system: colon (RKO) tumor cell line; assay: Methylene Blue Growth Inhibition Assay, RKO; assay type: cell-based; conditions: Homo sapiens, 72 h, 3 days, read-out: MeB Cell Line IC50
Source text: as §1, §2

Compound: COc1cc(Nc2ncc3c(C)nc(-c4ccc(C(F)(F)F)cc4)n3n2)cc(OC)c1OC [Example 24, 5-Methyl-7-[4-(trifluoromethyl)phenyl]-N-(3,4,5-trimethoxy-phenyl)imidazo[5,1-f][1,2,4]triazin-2-amine]
IC50 [1]: 0.1 to 10 µM
IC50 [2]: 10 to 30 µM
IC50 [3]: 10 to 30 µM
IC50 [4]: 10 to 30 µM
IC50 [5]: 10 to 30 µM
IC50 [6]: 10 to 30 µM
IC50 [7]: 10 to 30 µM

Compound: Cc1nc(-c2cccc(C(F)(F)F)c2)n2nc(Nc3cccc(CCO)c3)ncc12 [Example 44, 2-[3-({5-Methyl-7-[3-(trifluoromethyl)phenyl]imidazo[5,1-f][1,2,4]triazin-2-yl}amino)phenyl]ethanol]
IC50 [1]: < 0.1 µM
IC50 [2]: 1 to 10 µM
IC50 [3]: 1 to 10 µM
IC50 [4]: 10 to 30 µM
IC50 [5]: 10 to 30 µM
IC50 [6]: 10 to 30 µM
IC50 [7]: 1 to 10 µM

Compound: COc1ccc(NC(C)=O)cc1Nc1ncc2c(C)nc(-c3cccc(C(F)(F)F)c3)n2n1 [Example 43, N-[4-Methoxy-3-({5-methyl-7-[3-(trifluoromethyl)phenyl]imidazo-[5,1-f][1,2,4]triazin-2-yl}amino)phenyl]acetamide]
IC50 [1]: < 0.1 µM
IC50 [2]: 1 to 10 µM
IC50 [3]: 1 to 10 µM
IC50 [4]: 10 to 30 µM
IC50 [5]: 1 to 10 µM
IC50 [6]: 10 to 30 µM
IC50 [7]: 1 to 10 µM

Compound: COc1cc(Nc2ncc3c(C)nc(-c4cccc(C(F)(F)F)c4)n3n2)cc(OC)c1OC [Example 5, 5-Methyl-7-[3-(trifluoromethyl)phenyl]-N-(3,4,5-trimethoxyphenyl)-imidazo[5,1-f][1,2,4]triazin-2-amine]
IC50 [2]: 1 to 10 µM
IC50 [3]: 1 to 10 µM
IC50 [4]: 1 to 10 µM
IC50 [5]: 1 to 10 µM
IC50 [6]: 1 to 10 µM
IC50 [7]: 1 to 10 µM

Compound: Cc1nc(-c2cccc(Br)c2)n2nc(Nc3ccc(N4CCOCC4)c(Cl)c3)ncc12 [Example 15, 7-(3-Bromophenyl)-N-(3-chloro-4-morpholin-4-ylphenyl)-5-methylimidazo[5,1-f][1,2,4]triazin-2-amine]
IC50 [1]: 0.1 to 10 µM

Compound: COc1cc(Nc2ncc3c(C)nc(-c4ccccc4[N+](=O)[O-])n3n2)cc(OC)c1OC [Example 2, 5-Methyl-7-(2-nitrophenyl)-N-(3,4,5-trimethoxyvhenyl)imidazo[5,1-f][1,2,4]triazin-2-amine]
IC50 [1]: 0.1 to 10 µM

Compound: COC(=O)c1cccc(-c2nc(C)c3cnc(Nc4cc(OC)c(OC)c(OC)c4)nn23)c1 [Example 12, Methyl 3-{5-methyl-2-[(3,4,5-trimethoxyphenyl)amino]imidazo[5,1-f][1,2,4]triazin-7-yl}benzoate]
IC50 [1]: 0.1 to 10 µM

Compound: COc1cc(Nc2ncc3c(C)nc(-c4cc5ccccc5[nH]4)n3n2)cc(OC)c1OC [Example 32, 7-(1H-Indol-2-yl)-5-methyl-N-(3,4,5-trimethoxyphenyl)imidazo-[5,1-f][1,2,4]triazin-2-amine]
IC50 [1]: 0.1 to 10 µM

Compound: COc1cc(Nc2ncc3c(C)nc(-c4ccc(F)cc4)n3n2)cc(OC)c1OC [Example 4, 7-(4-Fluorophenyl)-5-methyl-N-(3,4,5-trimethoxyphenyl)imidazo-[5,1-f][1,2,4]triazin-2-amine]
IC50 [1]: < 0.1 µM

Compound: CCS(=O)(=O)c1ccc(OC)c(Nc2ncc3c(C)nc(-c4cccc(Br)c4)n3n2)c1 [Example 14, 7-(3-Bromophenyl)-N-[5-(ethylsulfonyl)-2-methoxyphenyl]-5-methylimidazo[5,1-f][1,2,4]triazin-2-amine]
IC50 [1]: 0.1 to 10 µM

Compound: COc1cc(Nc2ncc3c(C)nc(-c4cccn4C)n3n2)cc(OC)c1OC [Example 34, 5-Methyl-7-(1-methyl-1H-pyrrol-2-yl)-N-(3,4,5-trimethoxyphenyl)-imidazo[5,1-f][1,2,4]triazin-2-amine]
IC50 [1]: 0.1 to 10 µM

Second part, led by results:

IC50 [1]: < 0.1 µM
IC50 [2]: 10 to 30 µM
IC50 [3]: 10 to 30 µM
IC50 [5]: 10 to 30 µM
IC50 [6]: 10 to 30 µM
IC50 [7]: 10 to 30 µM
Compound: Cc1nc(-c2ccccc2)n2nc(Nc3cccc(CCS(=O)(=O)O)c3)ncc12 [Example 57, 2-{3-[(5-Methyl-7-phenylimidazo[5,1-f][1,2,4]triazin-2-yl)amino]phenyl}ethanesulfonic acid]
IC50 [4]: 10 to 30 µM

IC50 [1]: < 0.1 µM
IC50 [2]: 10 to 30 µM
IC50 [3]: 1 to 10 µM
IC50 [5]: 10 to 30 µM
IC50 [6]: 10 to 30 µM
IC50 [7]: 10 to 30 µM
Compound: CC(=O)Nc1cccc(Nc2ncc3c(C)nc(-c4cccc(C(F)(F)F)c4)n3n2)c1 [Example 47, N-[3-({5-Methyl-7-[3-(trifluoromethyl)phenyl]imidazo[5,1-f][1,2,4]triazin-2-yl}amino)phenyl]acetamide]
IC50 [4]: 10 to 30 µM

IC50 [1]: 0.1 to 10 µM
Compound: COc1ccc(Nc2ncc3c(C)nc(C4CCOCC4)n3n2)cc1 [Example 72, 5-Methyl-N-[4-(methyloxy)phenyl]-7-(tetrahydro-2H-pyran-4-yl)imidazo[5,1-f][1,2,4]triazin-2-amine]

IC50 [1]: 0.1 to 10 µM
Compound: COc1ccc(Nc2ncc3c(C)nc(-c4cccc(F)c4)n3n2)cc1 [Example 89, 7-(3-Fluorophenyl)-5-methyl-N-[4-(methyloxy)phenyl]imidazo[5,1-f][1,2,4]triazin-2-amine]

IC50 [1]: 0.1 to 10 µM
Compound: COc1ccc(Nc2ncc3c(C)nc(-c4cccc(OC)c4)n3n2)cc1 [Example 74, 5-Methyl-7-[3-(methyloxy)phenyl]-N-[4-(methyloxy)phenyl]-imidazo[5,1-f][1,2,4]triazin-2-amine]

IC50 [1]: 0.1 to 10 µM
Compound: COc1ccc(Nc2ncc3c(C)nc(-c4sccc4Br)n3n2)cc1 [Example 71, 7-(3-Bromo-2-thienyl)-5-methyl-N-[4-(methyloxy)phenyl]imidazo[5,1-f][1,2,4]triazin-2-amine]

IC50 [1]: 0.1 to 10 µM
Compound: COc1ccc(Nc2ncc3c(C)nc(C4CCCCC4)n3n2)cc1 [Example 85, 7-Cyclohexyl-5-methyl-N-[4-(methyloxy)phenyl]imidazo[5,1-f][1,2,4]triazin-2-amine]

IC50 [1]: 0.1 to 10 µM
Compound: COc1cc(Nc2ncc3c(C)nc(-c4cccc(-c5cccc(C(=O)O)c5)c4)n3n2)cc(OC)c1OC [Example 59, 3′-{5-Methyl-2-[(3,4,5-trimethoxyphenyl)amino]imidazo[5,1-f][1,2,4]triazin-7-yl}-1,1′-biphenyl-3-carboxylic acid]

IC50 [1]: 0.1 to 10 µM
Compound: Cc1nc(-c2cccc(C(F)(F)F)c2)n2nc(Nc3ccc(OCCN4CCCC4)cc3)ncc12 [Example 50, 5-Methyl-N-[4-(2-pyrrolidin-1-ylethoxy)phenyl]-7-[3-(trifluoromethyl)phenyl]imidazo[5,1-f][1,2,4]triazin-2-amine]

IC50 [1]: 0.1 to 10 µM
Compound: COc1ccc(Nc2ncc3c(C)nc(CC4CCCCC4)n3n2)cc1 [Example 91, 7-(Cyclohexylmethyl)-5-methyl-N-[4-(methyloxy)phenyl]-imidazo[5,1-f][1,2,4]triazin-2-amine]

IC50 [1]: 0.1 to 10 µM
Compound: COc1ccc(F)cc1Nc1ncc2c(C)nc(-c3cccc(C(F)(F)F)c3)n2n1 [Example 51, N-(5-Fluoro-2-methoxyphenyl)-5-methyl-7-[3-(trifluoromethyl)phenyl]-imidazo[5,1-f][1,2,4]triazin-2-amine]

IC50 [1]: 0.1 to 10 µM
Compound: COc1ccc(Nc2ncc3c(C)nc(-c4cccs4)n3n2)cc1 [Example 83, 5-Methyl-N-[4-(methyloxy)phenyl]-7-(2-thienyl)imidazo[5,1-f][1,2,4]triazin-2-amine]

IC50 [1]: 0.1 to 10 µM
Compound: COc1ccc(Nc2ncc3c(C)nc(-c4ccc(F)cc4)n3n2)cc1 [Example 82, 7-(4-Fluorophenyl)-5-methyl-N-[4-(methyloxy)phenyl]-imidazo[5,1-f][1,2,4]triazin-2-amine]

IC50 [1]: 0.1 to 10 µM
Compound: COc1cc(Nc2ncc3c(C)nc(-c4cccc(C#Cc5cn[nH]c5)c4)n3n2)cc(OC)c1OC [Example 58, 5-Methyl-7-[3-(1H-pyrazol-4-ylethynyl)phenyl]-N-(3,4,5-trimethoxyphenyl)imidazo[5,1-f][1,2,4]triazin-2-amine]

IC50 [1]: 0.1 to 10 µM
Compound: Cc1nc(-c2ccccc2)n2nc(Nc3ccc(OCCN(C)C)cc3)ncc12 [Example 96, N-(4-{[2-(Dimethylamino)ethyl]oxy}phenyl)-5-methyl-7-phenylimidazo[5.1-f][1,2,4]triazin-2-amine]

IC50 [1]: 0.1 to 10 µM
Compound: COc1ccc(Nc2ncc3c(C)nc(-c4cccc(C(F)(F)F)c4)n3n2)c(OC)c1 [Example 54, N-(2,4-Dimethoxyphenyl)-5-methyl-7-[3-(trifluoromethyl)phenyl]-imidazo[5,1-f][1,2,4]triazin-2-amine]
